Test results taken from patent US20080171706A1, “Anti-Adhesive Compounds to Prevent and Treat Bacterial Infections” (priority 2004, published 2008).

What was measured:
FimHtrCl#4 = molecular target: T1, FimHtrCl#4 (Escherichia coli, UniProt P08191, G94E/N91S/S99N/V48A); test: biochemical; format: binding, E. coli UPEC (Cl#4) strain
T1 construct: coding for the lectin domain of FimH (residues 1-158) with a C-terminal 6-histidine tag; made in house; host or cells: E. coli HB101 (lacking the fim operon), periplasmic extract, plasmid pMAS146
Procedure: (§1) To investigate if these variations reflect differences in sugar binding at the molecular level, the dissociation constants of a series of mannosides for the FimH lectin domain from a fecal (F18) and from a UPEC (Cl#4) strain were determined. […] For comparison, binding to FimHtrJ96 was also investigated. Both F18 and Cl#4 FimH lectin domains were cloned, expressed, and purified in the same way as FimHtrJ96 (Schembri et al., 2000). These two lectin domains differ from the lectin domain of FimHJ96 by substitutions Val27Ala, Asn70Ser and Ser78Asn. In addition, FimHCl#4 differs from the other two variants by a Gly73Glu substitution. […] Five different tri-mannosides corresponding to high-mannose substructures were synthesized, and their binding to FimHtrJ96, FimHtrF18 and FimHtrCl#4 measured using our [^3H]-mannose displacement assay (Table 3). Alpha-D-mannose binding was first directly measured for each of the FimH variants.
(§2) [^3H]alpha-D-mannose was obtained from Amersham. […] Syntheses of tri-mannosides was as reported earlier by Oscarson and co-workers (1993). Weighed amounts of tri-mannosides were dissolved in double distilled water to give stock solutions of 0.87 M man-(1,2)-man-(1,2)-man, 0.25 M man-(1,2)-man-(1,3)-man, 0.27 M man-(1,2)-man-(1,6)-man, 0.30 M man-(1,3)-man-(1,6)-man, 0.13 M man-(1,6)-man-(1,6)-man. Similarly, alkyl mannosides were dissolved in double distilled water to give stock solutions of 100 mM methyl mannoside, 59.8 mM ethyl mannoside, 45.9 mM propyl mannoside, 51.9 mM butyl mannoside, 17.3 mM pentyl mannoside, 20.8 mM hexyl mannoside, 15.3 mM heptyl mannoside, 15.2 mM octyl mannoside. pNPalphaMan and MeUmbalphaMan (6 mg each) were dissolved in 20 μl DMSO and diluted to 20 mM using double distilled water. Binding experiments were performed using six different concentrations of [^3H]-alpha-D-mannose (final concentrations 43.5 μM, 29.0 μM, 19.3 μM, 12.9 μM, 8.6 μM, 5.7 μM). FimHtrJ96 obtained by growing bacteria in minimal medium was used in all binding experiments. 180 μl protein at a concentration of about 500 nM was mixed with 20 μl of the radioactive ligand, and incubated at 37° C. for 20 min. To separate free ligand from bound, the mixture was rapidly filtrated through a Protran BA 85 Cellulose-nitrate filter (Schleicher & Schuell, Dassel, Germany), and washed once with 1 ml of ice-cold 1× PBS (phosphate buffered saline). Filter-bound radioactivity was measured by scintillation spectrometry within 24 hours. The displacement experiments were performed using six different concentrations (final concentrations in the range 0.0˜43.5 μM) of the inhibitor, in the presence of 43.5 μM [^3H]-alpha-D-mannose. 20 μl radioactive ligand, 20 μl inhibitor at decreasing concentrations, and 160 μl protein (500 nM) were mixed, and the experiments performed as above. All experiments were performed in duplicates. For determination of KD for α-D-mannose, a hyperbolic curve (y=P1x/(P2+x), where P2=KD) was fitted to the data. For the displacement experiments, the curve y=P1/(P2+x), where P2 is the concentration of the inhibitor displacing 50% of the labelled ligand, [I]0.5 was used instead. To calculate the inhibitor dissociation constant (KI) the Cheng & Prusoff equation (KI=[I]0.5/([L]/KL+1); KL is the constant of dissociation for the ligand) (Cheng and Prusoff, 1973), was used when both the concentration of the radioactive ligand (L) and the displacing agent (I) are in excess over the protein (LT>>PT;IT>>PT, T indicates total concentration). […] A plot of IT/((1−Y)*(LT/KL)−Y) against 1/Y gives a straight line with a slope of KI.

FimHtrF18 = molecular target: T2, FimHtrF18 (Escherichia coli, UniProt P08191, N91S/S99N/V48A); test: biochemical; format: binding, E. coli fecal (F18) strain
T2 construct: coding for the lectin domain of FimH (residues 1-158) with a C-terminal 6-histidine tag; made in house; host or cells: E. coli HB101 (lacking the fim operon), periplasmic extract, plasmid pPKL316
Procedure: as §1, §2

T1 sequence (P08191 22-179 V48A/N91S/G94E/S99N): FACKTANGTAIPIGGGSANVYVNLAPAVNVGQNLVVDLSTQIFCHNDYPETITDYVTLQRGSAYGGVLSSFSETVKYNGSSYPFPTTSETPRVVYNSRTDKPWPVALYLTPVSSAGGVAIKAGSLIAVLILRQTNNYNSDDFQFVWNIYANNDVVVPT
T2 sequence (P08191 22-179 V48A/N91S/S99N): as the sequence (P08191 22-179 V48A/N91S/G94E/S99N) above, with E73G counted along it

Structure (SMILES): OC[C@H]1O[C@H](O)[C@@H](O)[C@@H](O)[C@@H]1O [Mannose, α-D-mannose]
- Kd (FimHtrCl#4; KD CI#4, Table 3, [3H]-mannose displacement assay (mannose measured directly)): 10.7 µM
- Kd (FimHtrCl#4; KD, mannose binding measured directly, FimHtrCl#4): 11 µM
- ΔG° CI#4 (FimHtrCl#4; Table 3, calculated from KD): -7.0 kcal/mol
- Kd (FimHtrF18; KD F18, Table 3, [3H]-mannose displacement assay (mannose measured directly)): 9.8 µM
- Kd (FimHtrF18; KD, mannose binding measured directly, FimHtrF18): 10 µM
- ΔG° F18 (FimHtrF18; Table 3, calculated from KD): -7.1 kcal/mol
